From patent US20110262546A1 (priority 2008, published 2011)

How the values were obtained:
ScGT1 cells = details: for % cell viability ± SEM ScGT1: mouse
PrP^Sc in ScN2a cells = PrP^Sc in ScN2a cells (Mus musculus, UniProt P04925); assay: cell-based
PrP^Sc in ScGT1 cells = PrP^Sc in ScGT1 cells (Mus musculus, UniProt P04925); assay: cell-based
ScN2a cells = details: mouse

PrP^Sc in ScN2a cells, sequence (P04925 23-230 limits assumed): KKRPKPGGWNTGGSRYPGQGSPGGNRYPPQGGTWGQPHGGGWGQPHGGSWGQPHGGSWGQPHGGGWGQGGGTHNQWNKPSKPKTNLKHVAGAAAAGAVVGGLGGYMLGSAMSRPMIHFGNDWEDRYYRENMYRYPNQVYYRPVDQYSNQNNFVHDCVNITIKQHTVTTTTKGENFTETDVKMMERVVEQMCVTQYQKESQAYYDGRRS
PrP^Sc in ScGT1 cells, sequence (P04925 23-230 limits assumed): as above

Row | Molecule | cytotoxicity to the neurons (ScGT1 cells) | dead cells (ScGT1 cells) | % cell viability ± SEM ScGT1 (ScGT1 cells) [%] | EC50 (PrP^Sc in ScN2a cells) [µM] | EC50 (PrP^Sc in ScGT1 cells) [µM] | % cell viability ± SEM ScN2a (ScN2a cells) [%]
1 | sodium polystyrenesulfonate [PSS] | weak cytotoxicity | around 20% |  |  |  | 
2 | CN(C)CCCN1c2ccccc2CCc2ccccc21 [Imipramime, imipramine] |  |  | 100 ± 7 | 5.5 ± 0.5 | 6.2 ± 0.4 | 100 ± 5
3 | CCN(CC)CCCC(C)Nc1c2ccc(Cl)cc2nc2ccc(OC)cc12 (centres unmarked) [Quinacrine, quinacrine] |  |  | 100 ± 4 |  |  | 100 ± 2
